Results reported in patent US20170088520A1, “DEUBIQUITINASE INHIBITORS” (PharmAkea, Inc., priority 2014, published 2017).

Key:
Type in all cases: cell-based
[1] = system: PARP cleavage in cells (NCI-H929, Z138, MM.1S, A-375); assay: Analysis of PARP cleavage by Western blotting; conditions: compound tested at 5 μM; Western blot
Outline: (§1)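 NCI-H929, Z138, MM.1S and A-375 cells were treated with compounds at 5 μM, and lysates were Western blotted with anti-Mcl-1 and anti-PARP antibodies, quantified by infrared fluorescence. Activity is a significant drop in Mcl-1 and the appearance of cleaved PARP, each relative to vehicle-treated cells.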

[2] = molecular target: T1, DUB activity in cells (NCI-H929, Z138, MM.1S, A375) (Homo sapiens, UniProt Q93008); assay: HA-Ubiquitin-Vinylsulfone (HA-Ub-VS) cell labeling assay; conditions: compound tested at 5 μM; HA-Ub-VS labeling of USP9x in cells
T1 construct: endogenous in cells; host or cells: NCI-H929, Z138, MM.1S, A375
Outline: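 NCI-H929, Z138, MM.1S or A375 cells (1–2×10^6) treated 2–6 h at 37 °C with compound in 0.5% DMSO, here 5 μM. Lysates labeled with HA-Ub-VS for 15–60 min at 37 °C. Labeled DUBs resolved by SDS-PAGE and quantified by anti-HA and anti-β-actin immunoblot with infrared detection.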

[3] = system: Mcl-1 expression in cells (NCI-H929, Z138, MM.1S, A-375); assay: Analysis of Mcl-1 expression by Western blotting; conditions: compound tested at 5 μM; Western blot
Outline: as §1

T1 sequence (Q93008 whole entry): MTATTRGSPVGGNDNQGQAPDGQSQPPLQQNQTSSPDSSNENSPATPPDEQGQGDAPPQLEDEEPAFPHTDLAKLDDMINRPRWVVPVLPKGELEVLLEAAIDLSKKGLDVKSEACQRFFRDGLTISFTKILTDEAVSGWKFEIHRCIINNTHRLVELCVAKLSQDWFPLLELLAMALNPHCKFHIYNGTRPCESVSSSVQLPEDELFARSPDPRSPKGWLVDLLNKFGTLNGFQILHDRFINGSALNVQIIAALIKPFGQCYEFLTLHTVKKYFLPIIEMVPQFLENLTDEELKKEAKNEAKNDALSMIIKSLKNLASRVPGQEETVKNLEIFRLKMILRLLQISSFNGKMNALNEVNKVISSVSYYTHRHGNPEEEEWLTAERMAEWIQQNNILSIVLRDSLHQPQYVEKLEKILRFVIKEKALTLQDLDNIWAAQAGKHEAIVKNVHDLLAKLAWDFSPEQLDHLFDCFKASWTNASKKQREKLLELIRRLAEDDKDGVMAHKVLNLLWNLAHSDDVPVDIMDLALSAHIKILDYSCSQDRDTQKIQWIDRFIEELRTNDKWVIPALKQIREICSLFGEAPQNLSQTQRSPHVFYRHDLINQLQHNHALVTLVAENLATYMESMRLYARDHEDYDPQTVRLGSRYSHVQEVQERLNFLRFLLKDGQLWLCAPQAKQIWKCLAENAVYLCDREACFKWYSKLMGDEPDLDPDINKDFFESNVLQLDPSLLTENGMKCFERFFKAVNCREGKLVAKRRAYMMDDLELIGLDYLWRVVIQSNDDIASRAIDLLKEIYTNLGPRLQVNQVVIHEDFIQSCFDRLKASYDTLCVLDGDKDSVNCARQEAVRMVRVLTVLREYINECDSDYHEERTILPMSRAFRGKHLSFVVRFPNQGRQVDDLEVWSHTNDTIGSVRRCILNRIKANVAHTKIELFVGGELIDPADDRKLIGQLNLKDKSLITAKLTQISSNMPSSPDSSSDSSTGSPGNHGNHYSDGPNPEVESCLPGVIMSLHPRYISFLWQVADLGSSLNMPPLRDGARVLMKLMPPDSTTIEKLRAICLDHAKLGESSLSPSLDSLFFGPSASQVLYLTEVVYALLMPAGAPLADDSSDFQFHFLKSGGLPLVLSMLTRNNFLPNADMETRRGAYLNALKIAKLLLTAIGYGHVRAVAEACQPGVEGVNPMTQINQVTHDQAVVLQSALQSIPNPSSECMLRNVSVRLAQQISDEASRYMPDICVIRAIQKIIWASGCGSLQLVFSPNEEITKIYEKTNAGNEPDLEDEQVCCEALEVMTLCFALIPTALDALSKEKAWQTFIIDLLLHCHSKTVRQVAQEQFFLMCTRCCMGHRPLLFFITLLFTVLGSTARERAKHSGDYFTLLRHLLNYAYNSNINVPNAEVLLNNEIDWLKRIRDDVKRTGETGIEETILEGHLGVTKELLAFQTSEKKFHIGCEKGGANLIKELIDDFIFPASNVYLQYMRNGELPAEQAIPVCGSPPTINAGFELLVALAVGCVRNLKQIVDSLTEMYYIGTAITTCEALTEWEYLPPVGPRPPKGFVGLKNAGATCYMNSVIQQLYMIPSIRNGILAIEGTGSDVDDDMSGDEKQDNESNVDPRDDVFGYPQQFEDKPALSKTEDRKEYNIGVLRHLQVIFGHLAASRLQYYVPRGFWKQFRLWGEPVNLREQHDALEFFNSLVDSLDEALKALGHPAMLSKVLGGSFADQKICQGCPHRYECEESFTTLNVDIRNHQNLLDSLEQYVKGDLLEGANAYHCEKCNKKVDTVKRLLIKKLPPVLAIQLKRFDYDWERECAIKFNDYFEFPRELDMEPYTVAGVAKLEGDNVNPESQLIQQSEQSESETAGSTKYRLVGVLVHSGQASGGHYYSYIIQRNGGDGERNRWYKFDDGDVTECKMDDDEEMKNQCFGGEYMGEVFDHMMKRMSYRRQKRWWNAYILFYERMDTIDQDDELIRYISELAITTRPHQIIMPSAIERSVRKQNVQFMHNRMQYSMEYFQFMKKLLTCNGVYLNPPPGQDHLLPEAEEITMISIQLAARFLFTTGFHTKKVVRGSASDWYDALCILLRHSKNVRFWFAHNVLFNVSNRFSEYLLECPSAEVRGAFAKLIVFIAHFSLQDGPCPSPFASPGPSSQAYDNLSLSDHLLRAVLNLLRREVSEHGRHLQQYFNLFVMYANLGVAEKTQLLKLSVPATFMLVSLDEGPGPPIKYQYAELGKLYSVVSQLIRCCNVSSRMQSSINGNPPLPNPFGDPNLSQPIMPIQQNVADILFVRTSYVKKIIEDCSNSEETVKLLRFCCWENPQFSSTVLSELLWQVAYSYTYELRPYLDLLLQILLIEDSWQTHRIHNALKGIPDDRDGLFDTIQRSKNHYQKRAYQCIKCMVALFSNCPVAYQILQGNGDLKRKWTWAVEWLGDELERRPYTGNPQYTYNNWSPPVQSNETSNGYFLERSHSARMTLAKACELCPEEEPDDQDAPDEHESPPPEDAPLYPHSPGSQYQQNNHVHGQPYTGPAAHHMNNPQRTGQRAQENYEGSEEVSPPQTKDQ

Row | inhibition at 5 µM [2] | SMILES | PARP cleavage % Inhibition [1] | inhibition at 5 µM [3]
1 | 25 to 50% | N#C/C(=C\c1ncc(Br)cc1Br)C(=O)NC1(c2ccc(-c3ccc(N4CCOCC4)nc3)cc2)CCCC1 [Compound 51, (E)-2-cyano-3-(3,5-dibromopyridin-2-yl)-N-(1-(4-(6-morpholinopyridin-3-yl)phenyl)cyclopentyl)acrylamide] | A (A is ≧75% inhibition) | 25 to 50%
2 | ≥ 75% | N#C/C(=C\c1cccc(-c2ccc(N3CCOCC3)nc2)n1)C(=O)NC1(c2ccccc2)CCCC1 [Compound 57, (E)-2-cyano-3-(6′-morpholino-[2,3′-bipyridin]-6-yl)-N-(1-phenylcyclopentyl)acrylamide] | A (A is ≧75% inhibition) | ≥ 75%
3 | ≥ 75% | N#C/C(=C\c1ncc(Br)cc1Br)C(=O)NC1(c2ccc(C#CCN3CCOCC3)cc2)CCCC1 [Compound 50, (E)-2-cyano-3-(3,5-dibromopyridin-2-yl)-N-(1-(4-(3-morpholinoprop-1-yn-1-yl)phenyl)cyclopentyl)acrylamide] | A (A is ≧75% inhibition) | ≥ 75%
4 | ≥ 75% | N#C/C(=C\c1ncc(Br)cc1F)C(=O)NC1(c2ccccc2)CCCC1 [Compound 9, (E)-3-(5-Bromo-3-fluoropyridin-2-yl)-2-cyano-N-(1-phenylcyclopentyl)acrylamide] | A (A is ≧75% inhibition) | ≥ 75%
5 | ≥ 75% | N#C/C(=C\c1ncc(Br)cc1Br)C(=O)NC1(c2ccc(-c3cnc4[nH]ccc4c3)cc2)CCCC1 [Compound 59, (E)-N-(1-(4-(1H-pyrrolo[2,3-b]pyridin-5-yl)phenyl)cyclopentyl)-2-cyano-3-(3,5-dibromopyridin-2-yl)acrylamide] | A (A is ≧75% inhibition) | ≥ 75%
6 | 50 to 75% | COC(=O)c1ccc(-c2ccc(C3(NC(=O)/C(C#N)=C/c4ncc(Br)cc4Br)CCCC3)cc2)cn1 [Compound 37, (E)-methyl 5-(4-(1-(2-cyano-3-(3,5-dibromopyridin-2-yl)acrylamido)cyclopentyl)phenyl)picolinate] | B (B is 50% to 75% inhibition) | 50 to 75%
7 | < 25% | CCOc1ncc(C(F)(F)F)cc1-c1ccc(C2(NC(=O)/C(C#N)=C/c3ncc(Br)cc3Br)CCCC2)cc1 [Compound 54, (E)-2-cyano-3-(3,5-dibromopyridin-2-yl)-N-(1-(4-(2-ethoxy-5-(trifluoromethyl)pyridin-3-yl)phenyl)cyclopentyl)acrylamide] | C (C is 25% to 50% inhibition) | < 25%
8 | 25 to 50% | N#C/C(=C\c1cccc(C#CCN2CCOCC2)n1)C(=O)NC1(c2ccccc2)CCCC1 [Compound 55, (E)-2-cyano-3-(6-(3-morpholinoprop-1-yn-1-yl)pyridin-2-yl)-N-(1-phenylcyclopentyl)acrylamide] | A (A is ≧75% inhibition) | < 25%
9 | ≥ 75% | N#C/C(=C\c1cccc(Br)n1)C(=O)NC1(c2ccc(Br)cc2)CCCC1 [Compound 15, (E)-N-(1-(4-bromophenyl)cyclopentyl)-3-(6-bromopyridin-2-yl)-2-cyanoacrylamide] | A (A is ≧75% inhibition) | ≥ 75%

Second part, the compound before the results:

Row | SMILES | inhibition at 5 µM [2] | PARP cleavage % Inhibition [1] | inhibition at 5 µM [3]
10 | N#C/C(=C\c1nc(Br)ccc1F)C(=O)NC1(c2ccccc2)CCCC1 [Compound 6, (E)-3-(3-Fluoro-6-bromopyridin-2-yl)-2-cyano-N-(1-phenylcyclopentyl)acrylamide] | ≥ 75% | A (A is ≧75% inhibition) | ≥ 75%
11 | N#C/C(=C\c1cccc(-c2cccc(C(=O)O)c2F)n1)C(=O)NC1(c2ccccc2)CCCC1 [Compound 89, (E)-3-(6-(2-cyano-3-oxo-3-((1-phenylcyclopentyl)amino)prop-1-en-1-yl)pyridin-2-yl)-2-fluorobenzoic acid] | < 25% | C (C is 25% to 50% inhibition) | < 25%
12 | N#C/C(=C\c1cccc(N2CCCC2)n1)C(=O)NC1(c2ccccc2)CCCC1 [Compound 83, (E)-2-cyano-N-(1-phenylcyclopentyl)-3-(6-(pyrrolidin-1-yl)pyridin-2-yl) acrylamide] | < 25% | D (D is <25% inhibition) | < 25%
13 | N#C/C(=C\c1cccc(Br)n1)C(=O)NC1(c2ccccc2)CC1 [Compound 2, (E)-3-(6-Bromopyridin-2-yl)-2-cyano-N-(1-phenylcyclopropyl)acrylamide] | < 25% | C (C is 25% to 50% inhibition) | < 25%
14 | N#C/C(=C\c1cccc(C#CCn2cccn2)n1)C(=O)NC1(c2ccccc2)CCCC1 [Compound 43, (E)-3-(6-(3-(1H-pyrazol-1-yl)prop-1-yn-1-yl)pyridin-2-yl)-2-cyano-N-(1-phenylcyclopentyl)acrylamide] | ≥ 75% | A (A is ≧75% inhibition) | ≥ 75%
15 | CCCCCCCCCCCCCC(=O)OCc1ccc(C2(NC(=O)/C(C#N)=C/c3cccc(Br)n3)CCCC2)cc1 [Compound 84, (E)-4-(1-(3-(6-bromopyridin-2-yl)-2-cyanoacrylamido)cyclopentyl)benzyl tetradecanoate] | < 25% | D (D is <25% inhibition) | < 25%
16 | N#C/C(=C\c1ccc(Cl)c(F)c1)C(=O)NC1(c2ccccc2)CCCC1 [Compound 12, (E)-3-(4-Chloro-3-fluorophenyl)-2-cyano-N-(1-phenylcyclopentyl)acrylamide] | 25 to 50% | C (C is 25% to 50% inhibition) | < 25%
17 | N#C/C(=C\c1cccc(C#CCn2cccn2)n1)C(=O)NC1(c2ccncc2)CCCC1 [Compound 3-4, (E)-3-(6-(3-(1H-pyrazol-1-yl)prop-1-yn-1-yl)pyridin-2-yl)-2-cyano-N-(1-(pyridin-4-yl)cyclopentyl)acrylamide] | < 25% | B (B is 50% to 75% inhibition) | < 25%
18 | CC(=O)OCc1ccc(C2(NC(=O)/C(C#N)=C/c3cccc(Br)n3)CCCC2)cc1 [Compound 87, (E)-4-(1-(3-(6-bromopyridin-2-yl)-2-cyanoacrylamido)cyclopentyl)benzyl acetate] | 25 to 50% | A (A is ≧75% inhibition) | 50 to 75%
19 | CN(C(=O)/C(C#N)=C/c1cccc(Br)n1)C1(c2ccccc2)CCCC1 [Compound 2-82, (E)-3-(6-bromopyridin-2-yl)-2-cyano-N-methyl-N-(1-phenylcyclopentyl)acrylamide] | 50 to 75% | A (A is ≧75% inhibition) | ≥ 75%
20 | N#C/C(=C\c1cccc(C#CC2(O)CCCC2)n1)C(=O)NC1(c2ccccc2)CCCC1 [Compound 45] | 50 to 75% | A (A is ≧75% inhibition) | ≥ 75%
21 | N#C/C(=C\c1cccc(Br)n1)C(=O)NC1(c2cccnc2)CCCC1 [Compound 3-1, (E)-3-(6-bromopyridin-2-yl)-2-cyano-N-(1-(pyridin-3-yl)cyclopentyl) acrylamide] | < 25% | B (B is 50% to 75% inhibition) | < 25%
22 | N#C/C(=C\c1ncccc1F)C(=O)NC1(c2ccccc2)CCCC1 [Compound 8, (E)-3-(3-Fluoropyridin-2-yl)-2-cyano-N-(1-phenylcyclopentyl)acrylamide] | < 25% | D (D is <25% inhibition) | < 25%
23 | CCOC(=O)c1ccc(-c2cccc(/C=C(\C#N)C(=O)NC3(c4ccccc4)CCCC3)n2)cc1 [Compound 31, (E)-ethyl 4-(6-(2-cyano-3-oxo-3-((1-phenylcyclopentyl)amino)prop-1-en-1-yl)pyridin-2-yl)benzoate] | 25 to 50% | B (B is 50% to 75% inhibition) | < 25%
24 | N#C/C(=C\c1cccc(Br)n1)C(=O)NC1(c2ccnc(F)c2)CCCC1 [Compound 3-7, (E)-3-(6-bromopyridin-2-yl)-2-cyano-N-(1-(2-fluoropyridin-4-yl)cyclopentyl)acrylamide] | 25 to 50% | B (B is 50% to 75% inhibition) | < 25%
25 | N#C/C(=C\c1cccc(C2CC2)n1)C(=O)NC1(c2ccc(-c3ccc(C(=O)O)cc3)cc2)CCCC1 [Compound 92, (E)-4′-(1-(2-cyano-3-(6-cyclopropylpyridin-2-yl)acrylamido)cyclopentyl)-[1,1′-biphenyl]-4-carboxylic acid] | 25 to 50% | A (A is ≧75% inhibition) | ≥ 75%
26 | N#C/C(=C\c1cccc(-c2ccc(C(F)(F)F)nc2)n1)C(=O)NC1(c2ccccc2)CCCC1 [Compound 64, (E)-2-cyano-N-(1-phenylcyclopentyl)-3-(6′-(trifluoromethyl)-[2,3′-bipyridin]-6-yl)acrylamide] | 50 to 75% | A (A is ≧75% inhibition) | ≥ 75%
